From patent publication US10781184B2, “Substituted benzazinones as antibacterial compounds” (GlaxoSmithKline Intellectual Property Development Limited, priority 2015, dated 2020) come the findings set out here.

Experiment in all cases: Minimum Inhibitory Concentration Assay (broth microdilution, CLSI)
Holding throughout (assay type): cell-based
A general note: Dilution methods test growth across graded concentrations, often in twofold steps.

The subject of one assay is E. coli 7623. The following applies: Escherichia coli; strain 7623, broth microdilution; read-out: E. coli 7623 MIC. How it is done:
(§1) Methods for dilution Antimicrobial Susceptibility TestS for Bacteria that Grow Aerobically; Approved Standard-Ninth Edition; M7-A9, Vol. 32 No. 2, Clinical and Laboratory Standards Institute, Wayne, Pa.; January 2012.
(§2) Performance Standards for Antimicrobial Susceptibility Testing; Twenty-Second Informational Supplement; M100-S22 Vol. 32 No. 3; Clinical and Laboratory Standards Institute, Wayne, Pa., January 2012.
(§3) Broth microdilution was performed in accordance with the CLSI recommended procedures for aerobic bacteria [CLSI, 2012].
(§4) Comparator compound stock solutions were prepared as recommended by CLSI [CLSI, 2012]. The stock solutions of novel GSK compounds were prepared at 512 mcg/mL by dissolving the compounds in dimethyl sulfoxide (DMSO) and diluting 1:10 with sterile water. The 512 mcg/mL stock was further serially diluted in the recommended broth media for the organisms being tested. Final DMSO concentration in test wells was less than 1%.
(§5) Microtitre plates were prepared using the Microlab STAR™ (Hamilton Co., Reno, Nev.) to add media (50 μL) and the Microlab AT Plus system (Hamilton Co., Reno, Nev.) to serially dilute the compounds (final concentration range 0.125 to 128 mcg/mL) and to add inoculum. A positive growth control well containing medium and the test isolate was included on each microtitre plate. Ten microliters of the test medium from the positive growth control well was plated to determine the purity of each test isolate. A microtitre mirror reader (Cooke Instruments, Ltd., England) was used to assist in determining the microdilution MIC endpoints. The MIC was determined as the lowest concentration of compound that inhibited visible growth of the organism.

Another assay has as its system K. pneumoniae 1161486. The following applies: Klebsiella pneumoniae; strain 1161486, broth microdilution; read-out: K. pneumoniae 1161486 MIC. How it is done:
as §1, §2, §3, §4, §5

The next assay relates to P. aeruginosa PA01. The note with it: Pseudomonas aeruginosa; strain PA01, broth microdilution; read-out: P. aeruginosa PA01 MIC. How it is done: as §1, §2, §3, §4, §5

Values after ≈ are worked out from the molar mass of the structure shown.

By MIC is commonly meant the lowest concentration that inhibits growth of the organism. Regarding `C[C@@](CCn1cnc2cc(-c3ccc(CCO)cc3)c(F)cc2c1=O)(C(=O)NO)S(C)(=O)=O` [Example 28, (2R)-4-(6-fluoro-7-[4-(2-hydroxyethyl)phenyl]-4-oxo-3,4-dihydroquinazolin-3-yl)-N-hydroxy-2-methanesulfonyl-2-methylbutanamide], the MIC in the assay with E. coli 7623 was less than 0.03 µg/mL; with K. pneumoniae 1161486, 0.125 µg/mL (≈ 0.262 µM); with P. aeruginosa PA01, 0.5 µg/mL (≈ 1.05 µM).

On to `Cc1c(-c2ccc(CN3CCOCC3)cc2)ccc2c(=O)n(CC[C@](C)(C(=O)NO)S(C)(=O)=O)cnc12` [Example 29, (2R)—N-hydroxy-2-methanesulfonyl-2-methyl-4-(8-methyl-7-{4-[(morpholin-4-yl)methyl]phenyl}-4-oxo-3,4-dihydroquinazolin-3-yl)butanamide], for which the MIC with E. coli 7623 was determined as 0.5 µg/mL (≈ 0.946 µM); in the assay with K. pneumoniae 1161486, 0.5 µg/mL (≈ 0.946 µM); with P. aeruginosa PA01, 4 µg/mL (≈ 7.57 µM).

`COc1ccc(-c2cc3ncn(CC[C@](C)(C(=O)NO)S(C)(=O)=O)c(=O)c3cc2F)cn1` [Example 30, (2R)-4-[6-fluoro-7-(6-methoxypyridin-3-yl)-4-oxo-3,4-dihydroquinazolin-3-yl]-N-hydroxy-2-methanesulfonyl-2-methylbutanamide]: the results for the MIC in the assay on E. coli 7623, in the assay with K. pneumoniae 1161486 and in the assay with P. aeruginosa PA01 were 0.25 µg/mL (≈ 0.538 µM), 1 µg/mL (≈ 2.15 µM) and 16 µg/mL (≈ 34.4 µM), respectively.

For the compound `C[C@@](CCn1cnc2cc(-c3ccccc3)c(F)cc2c1=O)(C(=O)NO)S(C)(=O)=O` [Example 31, (2R)-4-(6-fluoro-4-oxo-7-phenyl-3,4-dihydroquinazolin-3-yl)-N-hydroxy-2-methanesulfonyl-2-methylbutanamide], the MIC in the assay on E. coli 7623 came out at 0.063 µg/mL (≈ 0.145 µM); in the assay on K. pneumoniae 1161486 it was 0.25 µg/mL (≈ 0.577 µM); in the assay with P. aeruginosa PA01, 2 µg/mL (≈ 4.61 µM).

As to `C[C@@](CCn1cnc2cc(-c3ccc4c(c3)COC4)c(F)cc2c1=O)(C(=O)NO)S(C)(=O)=O` [Example 32, (2R)-4-[7-(1,3-dihydro-2-benzofuran-5-yl)-6-fluoro-4-oxo-3,4-dihydroquinazolin-3-yl]-N-hydroxy-2-methanesulfonyl-2-methylbutanamide], the MIC came out at 0.125 µg/mL (≈ 0.263 µM) in the assay with E. coli 7623, 0.5 µg/mL (≈ 1.05 µM) in the assay with K. pneumoniae 1161486 and 4 µg/mL (≈ 8.41 µM) in the assay with P. aeruginosa PA01.

With `CN(C)c1ccc(-c2cc3ncn(CC[C@](C)(C(=O)NO)S(C)(=O)=O)c(=O)c3cc2F)cn1` [Example 33, (2R)-4-{7-[6-(dimethylamino)pyridin-3-yl]-6-fluoro-4-oxo-3,4-dihydroquinazolin-3-yl}-N-hydroxy-2-methanesulfonyl-2-methylbutanamide], the values for the MIC in the assay with E. coli 7623, in the assay on K. pneumoniae 1161486 and with P. aeruginosa PA01 were less than 0.03 µg/mL, 0.5 µg/mL (≈ 1.05 µM) and 8 µg/mL (≈ 16.8 µM), respectively.

Regarding `CC(=O)OCCc1ccc(-c2cc3ncn(CC[C@](C)(C(=O)NO)S(C)(=O)=O)c(=O)c3cc2F)cc1` [Example 34, 2-(4-{6-fluoro-3-[(3R)-3-(hydroxycarbamoyl)-3-methanesulfonyl-3-methylpropyl]-4-oxo-3,4-dihydroquinazolin-7-yl}phenyl)ethyl acetate], the MIC in the assay on E. coli 7623 is less than 0.03 µg/mL; in the assay with K. pneumoniae 1161486, 0.25 µg/mL; with P. aeruginosa PA01, 4 µg/mL.

Regarding `C[C@@](CCn1cnc2cc(-c3ccc(CN4CCOCC4)cc3)ccc2c1=O)(C(=O)NO)S(C)(=O)=O` [Example 35, (2R)—N-hydroxy-2-methanesulfonyl-2-methyl-4-(7-{4-[(morpholin-4-yl)methyl]phenyl}-4-oxo-3,4-dihydroquinazolin-3-yl)butanamide], the minimal inhibitory concentration (MIC) in the assay on E. coli 7623 is 0.125 µg/mL (≈ 0.243 µM); in the assay with K. pneumoniae 1161486, 0.5 µg/mL (≈ 0.972 µM); in the assay with P. aeruginosa PA01 it was 1 µg/mL (≈ 1.94 µM).

Turning to `COCCN(C)Cc1ccc(-c2ccc3c(=O)n(CC[C@](C)(C(=O)NO)S(C)(=O)=O)cnc3c2)c(F)c1` [Example 36, (2R)-4-[7-(2-fluoro-4-{[(2-methoxyethyl)(methyl)amino]methyl}phenyl)-4-oxo-3,4-dihydroquinazolin-3-yl]-N-hydroxy-2-methanesulfonyl-2-methylbutanamide], the MIC in the assay on E. coli 7623 was determined as 0.125 µg/mL (≈ 0.234 µM); in the assay on K. pneumoniae 1161486, 1 µg/mL (≈ 1.87 µM); with P. aeruginosa PA01, 1 µg/mL (≈ 1.87 µM).

Regarding `C[C@@](CCn1cnc2cc(-c3ccc(CN4CCOCC4)cc3F)ccc2c1=O)(C(=O)NO)S(C)(=O)=O` [Example 37, (2R)-4-(7-{2-fluoro-4-[(morpholin-4-yl)methyl]phenyl}-4-oxo-3,4-dihydroquinazolin-3-yl)-N-hydroxy-2-methanesulfonyl-2-methylbutanamide], the values for the MIC with E. coli 7623, with K. pneumoniae 1161486 and with P. aeruginosa PA01 were 0.063 µg/mL (≈ 0.118 µM), 0.5 µg/mL (≈ 0.939 µM) and 2 µg/mL (≈ 3.76 µM), respectively.

`COCCN(C)Cc1ccc(-c2ccc3c(=O)n(CC[C@](C)(C(=O)NO)S(C)(=O)=O)cnc3c2)c(F)c1F` [Example 38, (2R)-4-[7-(2,3-difluoro-4-{[(2-methoxyethyl)(methyl)amino]methyl}phenyl)-4-oxo-3,4-dihydroquinazolin-3-yl]-N-hydroxy-2-methanesulfonyl-2-methylbutanamide]: the MIC was 0.125 µg/mL (≈ 0.226 µM) in the assay with E. coli 7623, 0.5 µg/mL (≈ 0.905 µM) with K. pneumoniae 1161486 and 4 µg/mL (≈ 7.24 µM) in the assay with P. aeruginosa PA01.

As for `CN(Cc1ccc(-c2ccc3c(=O)n(CC[C@](C)(C(=O)NO)S(C)(=O)=O)cnc3c2)cc1F)C1CC1` [Example 39, (2R)-4-[7-(4-{[cyclopropyl(methyl)amino]methyl}-3-fluorophenyl)-4-oxo-3,4-dihydroquinazolin-3-yl]-N-hydroxy-2-methanesulfonyl-2-methylbutanamide], the results for the MIC with E. coli 7623, in the assay with K. pneumoniae 1161486 and in the assay on P. aeruginosa PA01 were less than 0.03 µg/mL, 0.5 µg/mL (≈ 0.968 µM) and 4 µg/mL (≈ 7.74 µM), respectively.

For `C[C@@](CCn1cnc2cc(-c3ccc(CN4CC(F)(F)C4)cc3F)ccc2c1=O)(C(=O)NO)S(C)(=O)=O` [Example 40, (2R)-4-(7-{4-[(3,3-difluoroazetidin-1-yl)methyl]-2-fluorophenyl}-4-oxo-3,4-dihydroquinazolin-3-yl)-N-hydroxy-2-methanesulfonyl-2-methylbutanamide], the MIC amounted to 0.5 µg/mL (≈ 0.928 µM) in the assay with E. coli 7623, 0.5 µg/mL (≈ 0.928 µM) in the assay on K. pneumoniae 1161486 and 4 µg/mL (≈ 7.43 µM) in the assay on P. aeruginosa PA01.

Take `C[C@@](CCn1cnc2cc(-c3ccc(CNC4CC4)cc3F)ccc2c1=O)(C(=O)NO)S(C)(=O)=O` [Example 41, (2R)-4-(7-{4-[(cyclopropylamino)methyl]-2-fluorophenyl}-4-oxo-3,4-dihydroquinazolin-3-yl)-N-hydroxy-2-methanesulfonyl-2-methylbutanamide]: the MIC amounted to 0.125 µg/mL (≈ 0.249 µM) in the assay on E. coli 7623, 2 µg/mL (≈ 3.98 µM) in the assay with K. pneumoniae 1161486 and 2 µg/mL (≈ 3.98 µM) with P. aeruginosa PA01.

As for `C[C@@](CCn1cnc2cc(-c3ccc(CCN4CCOCC4)cc3F)ccc2c1=O)(C(=O)NO)S(C)(=O)=O` [Example 43, (2R)-4-(7-{2-fluoro-4-[2-(morpholin-4-yl)ethyl]phenyl}-4-oxo-3,4-dihydroquinazolin-3-yl)-N-hydroxy-2-methanesulfonyl-2-methylbutanamide], the MIC in the assay on E. coli 7623 was found to be 0.25 µg/mL (≈ 0.457 µM); in the assay on K. pneumoniae 1161486 it was 0.5 µg/mL (≈ 0.915 µM); in the assay on P. aeruginosa PA01 it was 2 µg/mL (≈ 3.66 µM).

For `C[C@@](CCn1cnc2cc(-c3ccc(CCO)cc3)ccc2c1=O)(C(=O)NO)S(C)(=O)=O` [Example 44, (2R)—N-hydroxy-4-{7-[4-(2-hydroxyethyl)phenyl]-4-oxo-3,4-dihydroquinazolin-3-yl}-2-methanesulfonyl-2-methylbutanamide], the MIC stood at 0.125 µg/mL (≈ 0.272 µM) with E. coli 7623, 1 µg/mL (≈ 2.18 µM) in the assay with K. pneumoniae 1161486 and 1 µg/mL (≈ 2.18 µM) with P. aeruginosa PA01.

As to `C[C@@](CCn1cnc2cc(-c3ccc(CCO)cc3F)ccc2c1=O)(C(=O)NO)S(C)(=O)=O` [Example 45, (2R)-4-{7-[2-fluoro-4-(2-hydroxyethyl)phenyl]-4-oxo-3,4-dihydroquinazolin-3-yl}-N-hydroxy-2-methanesulfonyl-2-methylbutanamide], the MIC worked out at 0.063 µg/mL (≈ 0.132 µM) in the assay with E. coli 7623, 1 µg/mL (≈ 2.09 µM) with K. pneumoniae 1161486 and 1 µg/mL (≈ 2.09 µM) in the assay on P. aeruginosa PA01.

In the case of `CCOc1ccc(-c2ccc3c(=O)n(CC[C@](C)(C(=O)NO)S(C)(=O)=O)cnc3c2)cc1` [Example 46, (2R)-4-[7-(4-ethoxyphenyl)-4-oxo-3,4-dihydroquinazolin-3-yl]-N-hydroxy-2-methanesulfonyl-2-methylbutanamide], the MIC is less than 0.03 µg/mL in the assay on E. coli 7623, 0.125 µg/mL (≈ 0.272 µM) in the assay on K. pneumoniae 1161486 and 1 µg/mL (≈ 2.18 µM) in the assay with P. aeruginosa PA01.

Turning to `COCc1ccc(-c2ccc3c(=O)n(CC[C@](C)(C(=O)NO)S(C)(=O)=O)cnc3c2)cc1` [Example 47, (2R)—N-hydroxy-2-methanesulfonyl-4-{7-[4-(methoxymethyl)phenyl]-4-oxo-3,4-dihydroquinazolin-3-yl}-2-methylbutanamide], the MIC amounted to 0.063 µg/mL (≈ 0.137 µM) in the assay with E. coli 7623, 0.125 µg/mL (≈ 0.272 µM) with K. pneumoniae 1161486 and 0.5 µg/mL (≈ 1.09 µM) with P. aeruginosa PA01.

As to `COCCc1ccc(-c2ccc3c(=O)n(CC[C@](C)(C(=O)NO)S(C)(=O)=O)cnc3c2)c(F)c1` [Example 48, (2R)-4-{7-[2-fluoro-4-(2-methoxyethyl)phenyl]-4-oxo-3,4-dihydroquinazolin-3-yl}-N-hydroxy-2-methanesulfonyl-2-methylbutanamide], the MIC with E. coli 7623 was less than 0.03 µg/mL; in the assay with K. pneumoniae 1161486, 0.125 µg/mL (≈ 0.254 µM); with P. aeruginosa PA01 it was 1 µg/mL (≈ 2.03 µM).
